The nature of assay [1]: Extraction of mined oil sands with solvents (bitumen recovery).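 For Recovered Bitumen: Bitumen mass includes 3 to 7 wt% residual solvent.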 On the procedure: The quality of dimethyl sulfide as an oil recovery agent based on the miscibility of dimethyl sulfide with a crude oil relative to other compounds was evaluated. […] Each oil sands sample was weighed and placed in a cellulose extraction thimble that was placed on a porous polyethylene support disk in a jacketed glass cylinder with a drip rate control valve. Each oil sands sample was then extracted with a selected solvent at a selected temperature (10° C. or 30° C.) in a cyclic contact and drain experiment, where the contact time ranged from 15 to 60 minutes. Fresh contacting solvent was applied and the cyclic extraction repeated until the fluid drained from the apparatus became pale brown in color.
The extracted fluids were stripped of solvent using a rotary evaporator and thereafter vacuum dried to remove residual solvent. […] The residual solids and extraction thimble were air dried, weighed, and then vacuum dried. […] Collectively, the weight of the solid or sample and thimble recovered after extraction plus the quantity of bitumen recovered after extraction divided by the weight of the initial oil sands sample plus the thimble provide the mass closure for the extractions.

Assay [2] in a line: SARA analysis of extracted bitumen samples. To be noted: bitumen extracted at 30° C. The procedure:
The bitumen samples extracted at 30° C. from each oil sands sample were evaluated by SARA analysis to determine the saturates, aromatics, resins, and asphaltenes composition of the bitumen samples extracted by each solvent.

Where [3] appears, read: extraction at 10 C., not corrected for residual solvent.
The mark [4] stands for this setting: extraction at 30 C., not corrected for residual solvent.

Several values for one entry are separate records, joined by “and”; a condition that tells them apart may be missing. Equal entries are not always repeated. Where two headings read alike, the source gives them in different places.

With `S=C=S` [Carbon Disulfide, carbon disulfide], the entries for the “Weight Change” value in assay [1] (extraction at 10 C.) and in assay [1] (extraction at 30 C.) were 16.8 g and 16.4 g, respectively. In addition, the “Recovered Bitumen” value is recorded as 16.62 g in assay [1] (setting [3]) and 16.43 g in assay [1] (setting [4]).

`ClC(Cl)Cl` [Chloroform, chloroform]: in assay [1], the “Recovered Bitumen” value is 17.85 g and 18.62 g; the “Weight Change” value was 18.7 g and 19.4 g.

On to `ClCCl` [Dichloromethane, dichloromethane], for which the “Weight Change” value stood at 18.9 g in assay [1] (extraction at 10 C.) and 17.7 g in assay [1] (extraction at 30 C.). Also, the “Recovered Bitumen” value in assay [1] (setting [3]) stood at 17.66 g; in assay [1] (setting [4]) it was 16.30 g.

With `CCOC(C)=O` [Ethyl Acetate, ethyl acetate], in assay [2], the “extraction of / miscibility with asphaltenes” value was “much less effective”. The “Weight Change” value in assay [1] (extraction at 10 C.) was 11.2 g; in assay [1] (extraction at 30 C.) it was 17.7 g. The “Recovered Bitumen” value in assay [1] (setting [3]) is listed as 10.32 g; in assay [1] (setting [4]), 11.46 g.

Consider `C1CCOC1` [Tetrahydrofuran, tetrahydrofuran], for which the results for the “Weight Change” value in assay [1] (extraction at 10 C.) and in assay [1] (extraction at 30 C.) were 17.7 g and 18.0 g, respectively. Further, the entries for the “Recovered Bitumen” value in assay [1] (setting [3]) and in assay [1] (setting [4]) were 16.72 g and 17.67 g, respectively.

As to `Cc1ccccc1C` [o-Xylene, o-xylene], the “Weight Change” value in assay [1] (extraction at 10 C.) is on record as 17.3 g; in assay [1] (extraction at 30 C.), 19.5 g. For the same compound, the “Recovered Bitumen” value in assay [1] (setting [3]) was 17.36 g; in assay [1] (setting [4]), 17.37 g.

The values are drawn from US20140000883A1, “PETROLEUM RECOVERY PROCESS AND SYSTEM” (Shell Oil Company, priority 2012, published 2014).
